# Measured values published in ChEMBL document CHEMBL1201862, “PubChem BioAssay data set” (2004).
# Activity calls are given as the source filed them.
# How the values were obtained:
# [1] = target: T1, Cyclin-dependent kinase 5/CDK5 activator 1 (Homo sapiens, UniProt Q00535); experiment: CDK5-p25 kinase inhibitors, specificity check, dose response, selectivity assay for GSK-3 alpha inhibitor project, biochemical, microfluidic mobility shift, dry powder (AID 588430)
# [2] = target: T1, Cyclin-dependent kinase 5/CDK5 activator 1; experiment: CDK5/p35 kinase inhibitors, dose response, biochemical, cherry-picked samples, set 2 (AID 504545)
# [3] = target: Glycogen synthase kinase-3 alpha (Homo sapiens, UniProt P49840); experiment: Inhibition of Human GSK-3 alpha Activity Measured in Biochemical System Using Microfluidics - 2063-06_Inhibitor_Dose_DryPowder_Activity_Set2. [Related pubchem assays (depositor defined):AID2709]
# [4] = target: T2, Glycogen synthase kinase-3 beta (Homo sapiens, UniProt P49841); experiment: Inhibition of Human GSK-3 beta Activity Measured in Biochemical System Using Microfluidics - 2063-05_Inhibitor_Dose_DryPowder_Activity_Set2. [Related pubchem assays (depositor defined):AID2709]
# T2 sequence (P49841 whole entry): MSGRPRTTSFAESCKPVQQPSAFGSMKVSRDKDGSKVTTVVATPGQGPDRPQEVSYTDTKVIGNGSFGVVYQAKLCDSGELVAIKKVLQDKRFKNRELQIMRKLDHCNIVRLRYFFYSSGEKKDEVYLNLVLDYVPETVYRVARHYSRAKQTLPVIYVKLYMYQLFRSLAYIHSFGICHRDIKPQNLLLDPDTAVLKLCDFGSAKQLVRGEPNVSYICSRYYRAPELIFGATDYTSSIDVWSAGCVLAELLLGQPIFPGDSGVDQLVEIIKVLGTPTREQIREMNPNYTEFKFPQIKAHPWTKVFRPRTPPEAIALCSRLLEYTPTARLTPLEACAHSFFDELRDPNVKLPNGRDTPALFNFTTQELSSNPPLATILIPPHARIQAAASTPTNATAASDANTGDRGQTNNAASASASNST
# [5] = target: cAMP-dependent protein kinase catalytic subunit alpha (Homo sapiens, UniProt P17612); type: functional
# [6] = target: Homeodomain-interacting protein kinase 2 (Homo sapiens, UniProt Q9H2X6); type: functional;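 note: measured within a kinome-wide kinase profiling panel, HIPK2 being one panel member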
# Sequence of Homeodomain-interacting protein kinase 2 (Q9H2X6 whole entry): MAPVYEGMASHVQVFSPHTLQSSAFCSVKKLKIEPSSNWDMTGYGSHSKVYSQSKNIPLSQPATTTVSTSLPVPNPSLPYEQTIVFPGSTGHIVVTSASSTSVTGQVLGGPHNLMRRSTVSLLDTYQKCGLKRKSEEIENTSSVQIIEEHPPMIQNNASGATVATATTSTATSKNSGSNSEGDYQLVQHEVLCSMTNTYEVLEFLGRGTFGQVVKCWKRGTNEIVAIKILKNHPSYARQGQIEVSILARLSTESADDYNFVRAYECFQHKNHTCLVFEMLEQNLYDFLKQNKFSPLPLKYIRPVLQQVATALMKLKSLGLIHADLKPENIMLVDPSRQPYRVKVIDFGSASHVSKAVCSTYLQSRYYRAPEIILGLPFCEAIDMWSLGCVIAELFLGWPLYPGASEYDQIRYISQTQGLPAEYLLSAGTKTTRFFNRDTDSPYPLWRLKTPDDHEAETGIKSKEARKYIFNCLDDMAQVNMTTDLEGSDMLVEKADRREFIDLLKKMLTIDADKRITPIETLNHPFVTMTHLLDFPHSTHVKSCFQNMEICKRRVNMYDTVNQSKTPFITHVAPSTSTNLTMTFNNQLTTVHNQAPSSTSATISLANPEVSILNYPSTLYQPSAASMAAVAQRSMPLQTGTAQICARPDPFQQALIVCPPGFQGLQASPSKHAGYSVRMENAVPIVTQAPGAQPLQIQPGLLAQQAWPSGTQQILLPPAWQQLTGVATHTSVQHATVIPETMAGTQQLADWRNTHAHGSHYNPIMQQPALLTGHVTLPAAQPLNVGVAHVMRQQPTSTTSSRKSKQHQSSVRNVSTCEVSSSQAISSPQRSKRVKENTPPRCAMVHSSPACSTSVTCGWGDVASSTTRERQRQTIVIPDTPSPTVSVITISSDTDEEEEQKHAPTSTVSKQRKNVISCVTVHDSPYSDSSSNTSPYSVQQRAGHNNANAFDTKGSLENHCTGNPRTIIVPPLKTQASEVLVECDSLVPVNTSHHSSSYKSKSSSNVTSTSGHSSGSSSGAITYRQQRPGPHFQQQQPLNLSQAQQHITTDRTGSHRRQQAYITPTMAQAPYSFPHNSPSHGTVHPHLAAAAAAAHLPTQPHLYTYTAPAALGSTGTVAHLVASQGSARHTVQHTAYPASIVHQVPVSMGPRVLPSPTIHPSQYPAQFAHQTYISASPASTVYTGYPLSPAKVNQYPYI
# [7] = target: Mitogen-activated protein kinase kinase kinase kinase 4 (Homo sapiens, UniProt O95819); type: functional
# [8] = target: Interleukin-1 receptor-associated kinase 4 (Homo sapiens, UniProt Q9NWZ3); type: functional
# Sequence of Interleukin-1 receptor-associated kinase 4 (Q9NWZ3 whole entry): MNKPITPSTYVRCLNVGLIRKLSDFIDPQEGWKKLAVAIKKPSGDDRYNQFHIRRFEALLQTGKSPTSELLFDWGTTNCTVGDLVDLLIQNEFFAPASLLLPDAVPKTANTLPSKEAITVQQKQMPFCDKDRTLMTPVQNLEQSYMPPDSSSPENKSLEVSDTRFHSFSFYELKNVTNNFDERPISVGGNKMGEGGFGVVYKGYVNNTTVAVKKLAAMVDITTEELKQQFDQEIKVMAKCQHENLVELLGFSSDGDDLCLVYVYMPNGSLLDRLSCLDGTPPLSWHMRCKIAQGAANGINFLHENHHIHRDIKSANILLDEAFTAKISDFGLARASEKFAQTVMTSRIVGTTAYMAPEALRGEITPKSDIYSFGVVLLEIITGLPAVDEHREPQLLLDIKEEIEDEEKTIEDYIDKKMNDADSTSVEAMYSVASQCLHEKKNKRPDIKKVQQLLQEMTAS
# [9] = target: T2, Glycogen synthase kinase-3 beta; type: functional
# [10] = target: Cyclin-dependent kinase 2 (Homo sapiens, UniProt P24941); type: functional;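 note: CDK2 measured as one member of a broad kinome profiling panel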
# [11] = target: MAP kinase-interacting serine/threonine-protein kinase 2 (Homo sapiens, UniProt Q9HBH9); type: functional
# [12] = target: Dual specificity protein kinase CLK4 (Homo sapiens, UniProt Q9HAZ1); type: functional
# Sequence of Dual specificity protein kinase CLK4 (Q9HAZ1 whole entry): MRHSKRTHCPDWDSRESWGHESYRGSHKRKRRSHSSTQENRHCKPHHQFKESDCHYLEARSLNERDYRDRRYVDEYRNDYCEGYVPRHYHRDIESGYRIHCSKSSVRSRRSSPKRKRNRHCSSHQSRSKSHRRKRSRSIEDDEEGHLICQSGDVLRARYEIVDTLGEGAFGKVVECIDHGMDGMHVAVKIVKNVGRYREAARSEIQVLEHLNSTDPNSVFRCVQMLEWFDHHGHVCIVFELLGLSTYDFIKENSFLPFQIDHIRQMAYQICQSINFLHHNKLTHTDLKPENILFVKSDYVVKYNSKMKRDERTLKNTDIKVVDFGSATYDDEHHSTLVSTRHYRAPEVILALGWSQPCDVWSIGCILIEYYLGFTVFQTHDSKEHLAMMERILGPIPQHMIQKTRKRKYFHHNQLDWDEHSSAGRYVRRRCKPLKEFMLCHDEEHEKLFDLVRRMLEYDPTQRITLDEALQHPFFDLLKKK
# [13] = target: Cell division cycle 7-related protein kinase (Homo sapiens, UniProt O00311); type: functional;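 note: value obtained from a kinome-wide kinase panel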
# [14] = target: Serine/threonine-protein kinase pim-1 (Homo sapiens, UniProt P11309); type: functional
# Sequence of Serine/threonine-protein kinase pim-1 (P11309 whole entry): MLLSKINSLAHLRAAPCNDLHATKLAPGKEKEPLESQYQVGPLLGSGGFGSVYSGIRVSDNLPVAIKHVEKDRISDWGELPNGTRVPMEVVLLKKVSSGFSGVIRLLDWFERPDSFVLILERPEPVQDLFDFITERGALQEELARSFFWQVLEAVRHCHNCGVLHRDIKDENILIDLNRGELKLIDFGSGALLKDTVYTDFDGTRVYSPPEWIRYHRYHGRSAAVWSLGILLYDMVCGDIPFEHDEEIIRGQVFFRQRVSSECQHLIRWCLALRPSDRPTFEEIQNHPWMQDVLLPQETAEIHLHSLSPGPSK
# [15] = test system: CHO-K1; experiment: (§1) Counterscreen for antagonists of the orexin 1 receptor (OX1R; HCRTR1): Homogeneous time resolved fluorescence (HTRF)-based cell-based dose response assay to identify antagonists of the parental CHO-K1 cell line. [Related pubchem assays (depositor defined):AID434989, AID435008, AID463079, AID485270, AID492963, AID492964, AID492965, AID493232, AID504699, AID504701]; type: functional; settings: Cricetulus griseus
# [16] = target: T3, Orexin receptor type 2 (Homo sapiens, UniProt O43614); experiment: Counterscreen assay for antagonists of the orexin 1 receptor (OX1R; HCRTR1): Fluorescence-based cell-based dose response assay for antagonists of the orexin 2 receptor (OX2R; HCRTR2), run by assay provider.; type: functional
# T3 sequence (O43614 whole entry): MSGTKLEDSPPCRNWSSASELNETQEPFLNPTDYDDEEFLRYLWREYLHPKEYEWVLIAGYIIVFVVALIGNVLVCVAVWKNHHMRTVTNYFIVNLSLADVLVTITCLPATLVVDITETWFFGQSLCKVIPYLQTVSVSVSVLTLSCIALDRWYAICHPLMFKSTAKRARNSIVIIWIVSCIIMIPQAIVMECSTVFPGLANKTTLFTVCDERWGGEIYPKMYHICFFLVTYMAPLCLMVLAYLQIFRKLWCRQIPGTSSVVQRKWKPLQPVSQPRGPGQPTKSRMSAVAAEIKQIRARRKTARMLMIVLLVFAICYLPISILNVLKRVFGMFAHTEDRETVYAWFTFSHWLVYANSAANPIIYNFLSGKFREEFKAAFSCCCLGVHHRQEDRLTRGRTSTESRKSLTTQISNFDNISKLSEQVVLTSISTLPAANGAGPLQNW
# [17] = target: T4, Orexin/Hypocretin receptor type 1 (Homo sapiens, UniProt O43613); experiment: (§2) Fluorescence-based cell-based high throughput dose response assay for antagonists of the orexin 1 receptor (OX1R; HCRTR1). [Related pubchem assays (depositor defined):AID434989, AID435008, AID463079, AID485270, AID492963, AID492964, AID492965, AID493232, AID504717, AID504718]; type: functional
# T4 sequence (O43613 whole entry): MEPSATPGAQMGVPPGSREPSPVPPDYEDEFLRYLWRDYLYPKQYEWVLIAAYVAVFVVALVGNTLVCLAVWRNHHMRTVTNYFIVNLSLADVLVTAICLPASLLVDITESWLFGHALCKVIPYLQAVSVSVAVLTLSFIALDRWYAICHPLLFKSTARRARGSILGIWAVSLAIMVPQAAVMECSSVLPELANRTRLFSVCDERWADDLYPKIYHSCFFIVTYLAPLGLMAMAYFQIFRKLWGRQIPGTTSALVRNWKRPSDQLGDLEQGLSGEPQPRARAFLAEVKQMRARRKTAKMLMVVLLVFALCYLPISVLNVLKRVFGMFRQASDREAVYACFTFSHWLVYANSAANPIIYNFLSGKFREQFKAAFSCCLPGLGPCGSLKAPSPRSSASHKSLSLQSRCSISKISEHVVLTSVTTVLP
# [18] = as §1, with “Fluorescence-based” for “Homogeneous time resolved fluorescence (HTRF)-based”, “cell-based high throughput” for “cell-based”, “CHO” for “CHO-K1”; type: functional
# [19] = target: T4, Orexin/Hypocretin receptor type 1; experiment: as §2, with “Homogeneous Time Resolved Fluorescence (HTRF)-based” for “Fluorescence-based”; type: functional
# [20] = target: T3, Orexin receptor type 2; experiment: Counterscreen assay for antagonists of the orexin 1 receptor (OX1R; HCRTR1): Homogeneous Time Resolved Fluorescence (HTRF)-based cell-based dose response assay for antagonists of the orexin 2 receptor (OX2R; HCRTR2), run by assay provider.; type: functional
# [21] = target: Vascular endothelial growth factor receptor 2 (Homo sapiens, UniProt P35968); type: functional
# [22] = target: Serine/threonine-protein kinase Chk1 (Homo sapiens, UniProt O14757); type: functional;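 note: measured as one member of a kinome-wide kinase profiling panel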
# [23] = target: Macrophage colony-stimulating factor 1 receptor (Homo sapiens, UniProt P07333); type: functional;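 note: value comes from the Navigating the Kinome screening panel, CSF1R member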
# [24] = target: Serine/threonine-protein kinase PLK3 (Homo sapiens, UniProt Q9H4B4); type: functional
# [25] = target: Hepatocyte growth factor receptor (Homo sapiens, UniProt P08581); type: functional;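 note: kinase panel profiling across the kinome, with MET as the panel member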
# [26] = target: ALK tyrosine kinase receptor (Homo sapiens, UniProt Q9UM73); type: functional;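 note: ALK tested as one member of a kinase panel screen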
# [27] = target: Proto-oncogene tyrosine-protein kinase receptor Ret (Homo sapiens, UniProt P07949); type: functional;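 note: measured within a kinome-wide profiling panel, RET as the panel member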
# [28] = target: Receptor-type tyrosine-protein kinase FLT3 (Homo sapiens, UniProt P36888); type: functional;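 note: FLT3 was tested as one member of a kinome-wide kinase panel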
# [29] = target: RAC-alpha serine/threonine-protein kinase (Homo sapiens, UniProt P31749); type: functional;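 note: AKT1 affinity measured as one member of a kinome-wide kinase profiling panel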
# [30] = target: Serine/threonine-protein kinase PLK4 (Homo sapiens, UniProt O00444); type: functional;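 note: PLK4 measured as one member of a kinome-wide kinase profiling panel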
# [31] = target: Insulin receptor (Homo sapiens, UniProt P06213); type: functional;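 note: insulin receptor kinase tested as one member of a kinome-wide kinase panel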
# [32] = target: Vascular endothelial growth factor receptor 1 (Homo sapiens, UniProt P17948); type: functional;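 note: measured within a kinome-wide profiling panel, FLT1 as the panel member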
# [33] = target: Serine/threonine-protein kinase PLK1 (Homo sapiens, UniProt P53350); type: functional;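 note: PLK1 measured as one member of a kinome-wide profiling panel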
# [34] = target: Protein-tyrosine kinase 6 (Homo sapiens, UniProt Q13882); type: functional
# [35] = target: Serine/threonine-protein kinase pim-3 (Homo sapiens, UniProt Q86V86); type: functional;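 note: value obtained as one member of a broad kinase panel profiling effort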
# [36] = target: RAC-gamma serine/threonine-protein kinase (Homo sapiens, UniProt Q9Y243); type: functional
# Sequence of RAC-gamma serine/threonine-protein kinase (Q9Y243 whole entry): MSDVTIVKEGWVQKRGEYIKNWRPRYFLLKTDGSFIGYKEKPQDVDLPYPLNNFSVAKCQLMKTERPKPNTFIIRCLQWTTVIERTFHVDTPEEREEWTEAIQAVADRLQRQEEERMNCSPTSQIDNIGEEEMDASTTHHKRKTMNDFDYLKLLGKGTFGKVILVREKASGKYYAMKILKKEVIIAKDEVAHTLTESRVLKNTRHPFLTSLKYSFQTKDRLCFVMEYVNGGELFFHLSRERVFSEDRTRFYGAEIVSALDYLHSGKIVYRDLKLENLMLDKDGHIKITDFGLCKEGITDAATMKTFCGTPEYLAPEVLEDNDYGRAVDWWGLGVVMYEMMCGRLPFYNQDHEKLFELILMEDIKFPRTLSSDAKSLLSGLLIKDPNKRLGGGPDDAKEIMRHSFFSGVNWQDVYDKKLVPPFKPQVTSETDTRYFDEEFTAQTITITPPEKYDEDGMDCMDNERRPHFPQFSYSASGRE
# [37] = target: Fibroblast growth factor receptor 1 (Homo sapiens, UniProt P11362); type: functional
# [38] = target: Non-receptor tyrosine-protein kinase TYK2 (Homo sapiens, UniProt P29597); type: functional
# [39] = target: Protein disulfide-isomerase (Homo sapiens, UniProt P07237); experiment: PDI inhibitors, insulin aggregation turbidity, dose response, biochemical, absorbance, cherry-picked samples (AID 602350); type: functional
# [40] = target: Dual specificity tyrosine-phosphorylation-regulated kinase 1A (Rattus norvegicus, UniProt Q63470); type: biochemical, Homo sapiens
# [41] = target: Aurora kinase A (Homo sapiens, UniProt O14965); type: functional;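 note: value from the Navigating the Kinome kinase panel profiling, panel entry STK6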
# [42] = target: Inhibitor of nuclear factor kappa-B kinase subunit beta (Homo sapiens, UniProt O14920); type: functional
# [43] = target: Luciferin 4-monooxygenase (Photinus pyralis, UniProt P08659); experiment: firefly luciferase enzyme inhibitors, dose response, biochemical, dry powder samples, plate reader (AID 588451)
# [44] = MC4R antagonists, dose response, counter-screen for LGR2 antagonist project, cell-based, plate reader, cherry pick (AID 743444); type: functional;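 note: transfected HEK 293 cells stimulated with alpha-MSH peptide; potency of inhibitors of the alpha-MSH evoked signal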
# [45] = test system: H4; experiment: Inhibitors of Prion Protein 5' UTR mRNA Measured in Cell-Based System Using Plate Reader - 2078-01_Inhibitor_Dose_DryPowder_Activity. [Related pubchem assays (depositor defined):AID488894]; type: functional; settings: Homo sapiens
# [46] = test system: H4; experiment: inhibitors of control reporter signal in H4 cells – cell-based, plate reader, dry powder samples, counter-screen for prion reporter project, dose response (AID 540255); type: functional; settings: Homo sapiens
# [47] = LGR2 antagonists, dose response, cell-based, HEK293, CRE-luciferase reporter, cherry pick, set 2 (AID 743343); type: functional;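 note: transfected cells were stimulated with diluted bursicon conditioned medium after compound addition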
# [48] = test system: H4; experiment: Amyloid Precursor 5' UTR neuroblastoma cell reporter line Measured in Cell-Based System Using Plate Reader - 2078-04_Inhibitor_Dose_DryPowder_Activity. [Related pubchem assays (depositor defined):AID488894]; type: functional; settings: Homo sapiens
# [49] = test system: Jurkat; experiment: antigen receptor-induced NF-kB inhibitors, dose response, Jurkat, luciferase reporter, luminescence, B- and T-cell (AID 489004); type: functional, cell-based; settings: Homo sapiens;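 note: NF-kB luciferase reporter Jurkat cells stimulated with PMA plus ionomycin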
# [50] = cytotoxicity in HEK-293T NF-kB-Luc cells, dose response, cytotoxicity control for B/T-cell NF-kB inhibitor project, cell-based, uHTS hits (AID 489019); type: functional;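 note: IC50 reflects cytotoxicity as loss of cell viability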
# [51] = target: Homeodomain-interacting protein kinase 4 (Homo sapiens, UniProt Q8NE63); type: functional
# [52] = target: Casein kinase I isoform delta (Homo sapiens, UniProt P48730); type: functional;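 note: measured as one member (CSNK1D) of a kinome panel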
# [53] = target: SRSF protein kinase 1 (Homo sapiens, UniProt Q96SB4); type: functional;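 note: measured as one member of a kinome-wide kinase profiling panel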
# [54] = target: Dual specificity tyrosine-phosphorylation-regulated kinase 1A (Homo sapiens, UniProt Q13627); type: functional;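 note: measured against DYRK1A as one member of a broad kinome profiling panel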
# T1 sequence (Q00535 whole entry): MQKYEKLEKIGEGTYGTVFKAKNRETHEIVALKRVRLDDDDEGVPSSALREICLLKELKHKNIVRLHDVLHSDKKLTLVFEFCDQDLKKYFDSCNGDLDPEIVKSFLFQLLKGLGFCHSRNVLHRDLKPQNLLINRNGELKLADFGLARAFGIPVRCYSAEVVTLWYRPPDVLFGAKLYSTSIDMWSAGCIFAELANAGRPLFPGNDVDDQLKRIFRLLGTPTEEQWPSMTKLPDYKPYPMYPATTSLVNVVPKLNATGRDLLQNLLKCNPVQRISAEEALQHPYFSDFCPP
# T1 sequence (Q15078 whole entry, further chain): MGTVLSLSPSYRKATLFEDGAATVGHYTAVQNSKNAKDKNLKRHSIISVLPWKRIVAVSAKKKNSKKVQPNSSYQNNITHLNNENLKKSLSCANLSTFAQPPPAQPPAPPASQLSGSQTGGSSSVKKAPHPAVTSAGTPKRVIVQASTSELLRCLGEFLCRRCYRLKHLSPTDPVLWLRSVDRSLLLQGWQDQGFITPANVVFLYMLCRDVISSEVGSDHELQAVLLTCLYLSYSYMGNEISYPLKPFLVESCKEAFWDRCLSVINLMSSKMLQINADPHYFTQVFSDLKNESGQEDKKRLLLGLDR
structure (smiles),measurement,setting,value
COc1ccc2nc3c(cc2c1)c(NC(=O)CC(C)C)nn3CC(C)C,AC50,[1],1.4 µM (active)
same,AC50,[2],32.7 µM (active)
same,AC50,[3],1.48 µM (active)
same,AC50,[4],0.228 µM (active)
Cc1sc2[nH]c(=O)n3nc(-c4ccncc4)nc3c2c1C,Ki,[5],> 7.94 µM (inactive)
same,Ki,[6],2 µM (active)
same,Ki,[7],5.01 µM (active)
same,Ki,[8],> 10 µM (inactive)
same,Ki,[9],0.631 µM (active)
same,Ki,[10],> 7.94 µM (inactive)
same,Ki,[11],> 10 µM (inactive)
same,Ki,[12],1.26 µM (active)
same,Ki,[13],0.02 µM (active)
same,Ki,[14],0.794 µM (active)
Cc1ccc(NC2=NC(=O)/C(=C/c3cccn3C)S2)cc1C,IC50,[15],> 66.2 µM (inactive)
same,IC50,[16],> 88.8 µM (inactive)
same,IC50,[17],2.24 µM (active)
same,IC50,[18],> 49.7 µM (inactive)
same,IC50,[19],2.2 µM (active)
same,IC50,[20],> 50 µM (inactive)
Nc1nnc2ccc(-c3ccccc3)cn12,Ki,[21],15.8 µM (active)
same,Ki,[22],> 79.4 µM (inactive)
same,Ki,[23],> 25.1 µM (inactive)
same,Ki,[24],> 79.4 µM (inactive)
same,Ki,[25],> 31.6 µM (inactive)
same,Ki,[26],12.6 µM (active)
same,Ki,[27],10 µM (active)
same,Ki,[28],5.01 µM (active)
same,Ki,[29],> 79.4 µM (inactive)
same,Ki,[30],> 39.8 µM (inactive)
same,Ki,[31],> 50.1 µM (inactive)
same,Ki,[32],2 µM (active)
same,Ki,[33],> 79.4 µM (inactive)
same,Ki,[34],> 25.1 µM (inactive)
same,Ki,[35],12.6 µM (active)
same,Ki,[36],> 100 µM (inactive)
same,Ki,[37],10 µM (active)
same,Ki,[14],10 µM (active)
same,Ki,[38],> 20 µM (inactive)
CC(C)Sc1nnc([C@H](Cc2c[nH]c3ccccc23)NC(=O)OC(C)(C)C)o1,AC50,[39],19.5 µM (active)
c1ccc2c(c1)[nH]c1cnccc12 [NORHARMANE],AC50,[40],8.75 µM (active)
same,Ki,[41],15.8 µM (active)
same,Ki,[42],7.94 µM (active)
same,Ki,[14],6.31 µM (active)
Cc1cc(C(=O)COC(=O)c2ccccc2O)c(C)n1CC1CCCO1 (configuration not stated),AC50,[43],1.05 µM (active)
same,AC50,[44],0.178 µM (active)
same,AC50,[45],0.017 µM (active)
same,AC50,[46],0.273 µM (active)
same,AC50,[47],0.178 µM (active)
same,AC50,[48],0.00598 µM (active)
same,IC50,[49],0.25 µM (active)
same,IC50,[50],> 80 µM (inactive)
CC(C)n1cnc2c(NCc3ccccc3)nc(NCCO)nc21,Ki,[51],2 µM (active)
same,Ki,[52],2.51 µM (active)
same,Ki,[12],2.51 µM (active)
same,Ki,[53],6.31 µM (active)
same,Ki,[54],3.16 µM (active)
